Measured values taken from patent US8716279B2, “Pharmaceutical compositions of clonazepam and method of use thereof” (Jazz Pharmaceuticals, Inc., priority 2006, dated 2014).
≈ marks a conversion by molar mass, not a printed value.

Columns and labels:
[1] = Solubilities of clonazepam in glycol ethers at 3 temperatures
Method: The vials were then centrifuged at −5° C. and 5° C. for the −15° C. and 5° C. samples, respectively, at 5000 rpm for 2 minutes.

[2] = qEEG mapping; type: in vivo; conditions: human
Method: E. Electroencephalography (EEG) Methods: Drug and placebo are administered, for example, at a five-minute intravenous (i.v.) infusion. During 15 minutes following the beginning of the administration EEG is registered. The EEG is registered again at 30, 60, 90, 120, and 180 minutes. Subjects are typically in a quiet laboratory (soundproof and electrically shielded room). During acquisition of EEG measurements subjects recline in an armchair. Usually twenty-eight EEG leads (issued, for example, from a 10-20 system; Jasper, H. H., et al., “Studies of clinical and electrical responses to deep temporal stimulation in men with some considerations of functional anatomy,” Res Publ Assoc Res Nerv Ment Dis. 36:316-34 (1958); Japser, H. H., “Progress and problems in brain research,” J Mt Sinai Hosp N Y. 25(3):244-53 (1958)) are used for recording. An ear linked reference, as well as four artifact channels (detection of eye movement, muscle activity, and other potentials for artifacts) may be used. Silver-plated disc electrodes are attached to subject's scalp, for example, with quick drying collondion. Impedance (for example, of 2000-5000 ohms) is checked before each recording session. A calibration signal is used, before each subject is tested, in order to adjust all the recorded leads thus allowing the construction of EEG or event-related-potentials (ERP) maps. EEGs are taken under resting recording conditions (i.e., subjects are asked to relax with their eyes closed). An example of data analysis used is the method of Dago, et al. (Dago, K T, et al., “Statistical Decision Tree: a tool for studying pharmaco-EEG effects of CNS-active drugs,” Neuropsychobiology, 29(2):91-6 (1994)) which involves a statistical comparison of data obtained during active treatment versus placebo treatment. Typically, topographic mapping of mean EEG parameters and statistical evaluation of treatment effects is carried out in a selected number of healthy volunteers.
EEG profiles are determined for patients dosed intranasally with clonazepam compositions of the present invention. […]

[3] = Psychomotor, subjective and cognitive tests; type: in vivo; conditions: human
Description: D. Neurocognative Tests: The Cognitive Drug Research (CDR) computerized assessment system is specifically designed to evaluate the effects of compounds on the quality of cognitive functioning in subjects and patients in all phases of clinical development. The CDR system is a widely used computerized cognitive assessment system (see, for example, Ebert U, et al., “Pharmacokinetics and pharmacodynamics of scopolamine after subcutaneous administration,” Journal of Clinical Pharmacology 38: 720-726 (1998); Harrington F, et al., “Cognitive Performance in Hypertensive and Normotensive Older Subjects,” Hypertension 36: 1079-1082 (2000); Preece A W, et al., “Effect of a 915-MHz simulated mobile phone signal on cognitive function in man,” International Journal of Radiation Biology 75: 447-456 (1999); and Walker M P, et al., “Quantifying fluctuation in Dementia with Lewy Bodies, Alzheimer's disease and vascular dementia,” Neurology 54: 1616-1625 (2000)) and has been used to evaluate a diverse range of pharmaceutical compounds.
This example describes the pharmacodynamic effects of clonazepam compositions formulated for intranasal administration using neurocognitive tests. A selection of tests from a computerized assessment system of Cognitive Drug Research (“CDR,” Reading, United Kingdom) is employed. The study is typically a double-blind, randomized, placebo-controlled cross-over design. As a control, the group may receive clonazepam intravenous (i.v.) and placebo at selected dosages.
Cognitive function is typically assessed using an attentional task battery to assess attention and a word recognition task to assess secondary memory. […]
Tests may be administered, for example, in the following order: Word Presentation; Simple Reaction Time; Digit Vigilance; Choice Reaction Time; and Word Recognition. […] Summary statistics (m, number; mean; sem, standard error; sd, standard deviation; median; min, minimum; max, maximum; and missing) are typically calculated for each measure at each time point by dose. […]

`O=C1CN=C(c2ccccc2Cl)c2cc([N+](=O)[O-])ccc2N1` [Clonazepam, 5-(2-chlorophenyl)-1,3-dihydro-7-nitro-2H-1,4-benzodiazepin-2-one] showed a Solubility ([1]; in 1,2-dimethyxoethane, 5 C.) of 35.7 mg/mL (≈ 113 mM), a Solubility ([1]; in 1,2-dimethyxoethane, −15 C.) of 35.2 mg/mL (≈ 111 mM) and a Solubility ([1]; in Di (ethylene glycol) methyl ether, 5 C.) of 53.9 mg/mL (≈ 171 mM). The Solubility ([1]; in Di (ethylene glycol) methyl ether, −15 C.) was 58.1 mg/mL (≈ 184 mM), the Solubility ([1]; in Di (ethyleneglycol) diethyl ether, 5 C.) was 18.5 mg/mL (≈ 58.6 mM) and the Solubility ([1]; in Di (ethyleneglycol) diethyl ether, −15 C.) was 19.5 mg/mL (≈ 61.8 mM). The Solubility ([1]; in Diethylene glycol monoethyl ether, 5 C.) was 37.7 mg/mL (≈ 119 mM), the Solubility ([1]; in Diethylene glycol monoethyl ether, −15 C.) was 43.3 mg/mL (≈ 137 mM) and the “EEG changes from baseline” value ([2]; all three routes) was “increased delta and beta activity and decreased alpha and theta activity”. The “beta-1 relative power, time course of effects (post-hoc analysis)” value ([2]; intranasal administration) was “magnitude of effect similar to that from oral administration”, the “time after dosing at which the EEG pattern was noted” value ([2]; oral administration) was “approximately 2 hours” and the “time at which effects were first apparent (Leeds Psychomotor Test, Bond and Lader VAS, Karolinska Sleepiness Scale)” value ([3]; intranasal administration) was “approximately 30 minutes”. For the same molecule, the “time at which effects were first apparent (Leeds Psychomotor Test, Bond and Lader VAS, Karolinska Sleepiness Scale)” value ([3]; intravenous administration) was “approximately 30 minutes” and the “time at which effects were first apparent (Leeds Psychomotor Test, Bond and Lader VAS, Karolinska Sleepiness Scale)” value ([3]; oral administration) was “approximately 2 hours”.
